Assay results reported in patent US20140377289A1, “Metallodrugs Having Improved Pharmacological Properties, and Methods of Manufacture and Use Thereof” (MetalloPharm, LLC, priority 2011, published 2014).
Read-outs that look alike come from different tables or passages of the source. Where a SMILES comes first, the peptide text is derived from it. Where no end group is shown, it is not given here. [ ]: non-standard residue; d: D form. The star is where a group is joined. X1 = COCCOCCOCCOCCOCCOCCOCCOCCOCCOCCOCCOCCOCCOCCOCCOCCOCCOCCOCCOCCOCCOCCOCCOCCNC(=O)CCN1C(=O)CC(*)C1=O

Experiments:
[1] = biological target: T1, Recombinant human somatic ACE (sACE-1) (Homo sapiens, UniProt P12821); test: Time-dependent inactivation of sACE-1; type: biochemical; conditions: pH 7.4, 37° C.
T1 construct: sACE-1: Leu30-Leu1261, with C-terminal His tag; His tag (C); purchased R&D Systems; host or cells: NS0-derived murine myeloma cell line
Procedure: Time-Dependent Inactivation of sACE-1. sACE-1 and each M-chelate-lisinopril complex (prepared in the absence of Zn^2+) were preincubated for 20 min at 37° C. in a buffer containing 50 mM HEPES, 300 mM NaCl, 10 μM ZnCl2, 0.05% Brij35, pH 7.4, and after 20 min, coreactants ascorbate and/or H2O2 (or no coreactants) were added to initiate each reaction. Reaction concentrations were 1 nM sACE-1, a concentration of M-chelate-lisinopril that gave approximately 80% activity (calculated by use of equation (1), where A=80%; concentrations listed in the table in paragraph [00132]), and 1 mM ascorbate and/or H2O2 (or no coreactants). Each time-dependent ACE-inactivation reaction proceeded at 37° C. for a period of 2 h, and at each specific intervening time point, a 68.6 μL, aliquot of the reaction mixture containing sACE-1 was mixed with 1.4 μL of 0.5 mM fluorogenic substrate in a fluorescence cuvette. Substrate cleavage by sACE-1 was immediately monitored by real-time fluorimetry at 37° C., with excitation at 320 nm and emission at 405 nm. Initial rates were determined for each time point for the time-dependent inactivation of sACE-1, and these initial rates were expressed as a percentage (% maximal activity) of the average of several initial rates for uninhibited substrate cleavage by sACE-1, determined in the absence of both M-chelate-lisinopril complexes and coreactants. Plots of % maximal activity vs. time were fit to a first-order exponential decay model, and initial rates of inactivation of sACE-1 by M-chelate-lisinopril complexes were determined. Second-order rate constants for inactivation of sACE-1 were obtained using equation (2), where k2 is the second-order rate constant (M^−1 min^−1), R is the initial rate of enzyme inactivation (M/min) after subtraction of the corresponding background rate in the absence of M-chelate-lisinopril complex, but with the same coreactants, [I] is the concentration of M-chelate-lisinopril complex used (M), and [E] is the concentration of sACE-1 used (1×10^−9 M). Control experiments with M-chelate complexes lacking attached lisinopril were performed in the same manner and conditions used for the respective M-chelate-lisinopril complexes.

full length sACE-1 = biological target: T2, full length sACE-1 (Homo sapiens, UniProt P12821); test: Cleavage of full length sACE-1 monitored by SDS-PAGE; type: biochemical; conditions: Ascorbate, pH 7.4, 37° C.
T2 construct: sACE-1: Leu30-Leu1261, with C-terminal His tag; His tag (C); purchased R&D Systems; host or cells: NS0-derived murine myeloma cell line

pUC19 plasmid DNA = test: DNA nicking and linearization nuclease assay; type: biochemical; conditions: 10 μM base pairs pUC19; ascorbate/peroxide; — = Below detection limit
[2] = biological target: T1, Recombinant human somatic ACE (sACE-1); test: Determination of IC50 values, sACE-1 fluorogenic substrate cleavage; type: biochemical
[3] = tested on: stem loop IIb HCV IRES RNA; type: biochemical, hepatitis C virus (HCV); conditions: cleavage of stem-loop IIb; 100 nM catalyst, 1 mM ascorbate, 1 mM H2O2
Procedure: (§1) HCV IRES RNA cleavage was monitored in vitro by fluorescence using 5′ fluorescein end-labeled RNA with excitation and emission wavelengths of 485 nm and 518 nm, respectively. Reactions were carried out in reaction volumes of 100 μl in the presence of 1 mM ascorbate and 1 mM H2O2 in 20 mM HEPES buffer (pH=7.4), 100 mM NaCl with 100 nM of the catalyst and analyzed according to the change in fluorescence observed as the reaction occurred. Both a time-dependence and a concentration-dependence of RNA substrate were observed. The initial velocities were fit to a line using Origin 7.0 software and kobs obtained. These values were then used to obtain the Michaelis-Menten parameters.
The reactivity of select catalytic metallodrugs was investigated by Michaelis-Menten profiles. Reaction chemistry was followed by monitoring the fluorescence change of 5′-fluorescein-labeled RNA as a function of time. Initial velocities were measured as a function of substrate (RNA) concentration to generate a standard Michaelis-Menten plot (FIG. 2).

[4] = tested on: stem loop IV HCV IRES RNA; type: binding, hepatitis C virus (HCV)
Procedure: (§2) RNA was purchased from Dharmacon, part of Thermo Fisher Scientific (Lafayette, Colo.). Peptides were purchased from Genemed Synthesis Inc (South San Francisco, Calif.) with C-terminal amidation. The stem-loop (SL) structure (from Lytle et al., RNA 13: 539-48, 2002) is depicted in FIG. 6. The sequence for the IRES SL IIb RNA used was 5′-Fluorescein-[…]-3′, and for the IRES SL IV RNA was 5′-Fluorescein-[…]-3′. All RNA was annealed by heating to 95° C. and then cooled slowly to room temperature before use.
(§3) RNA binding experiments were performed in the presence of 84 nM GGHYrFK-amide in 20 mM HEPES (pH 7.4), 100 mM NaCl. For GGHYrFK-amide, serial additions of unlabeled IRES RNA were added and tyrosine emission was monitored (λex=280 nm, λem=313 nm). Binding data for GGHYr[…]-amide and GGHYr[…]-amide were obtained by adding serial additions of peptide to 5′-fluorescein labeled IRES SLIIb and monitoring at 518 nm (Ex=485 nm). Data was then fit to a one-site binding model.

[5] = tested on: stem-loop IIb of HCV IRES RNA; type: binding, hepatitis C virus (HCV); conditions: stem-loop IIb
Procedure: as §2, §3

[6] = tested on: stem loop IV HCV IRES RNA; type: biochemical, hepatitis C virus (HCV); conditions: cleavage of stem loop IV; 100 nM catalyst, 1 mM ascorbate, 1 mM H2O2
Procedure: as §1

in vitro = conditions: human
[7] = tested on: HCV RNA replicon in ET (luc-ubi-neo/ET) Huh7 cells; conditions: read-out: antiviral IC50; 72 h, replicon-derived Luc activity
HCV protease [8] = biological target: T3, HCV protease (Hepatitis C virus genotype 1a, UniProt P27958); conditions: cited from earlier work
HCV protease [9] = biological target: T3, HCV protease; test: biochemical; type: binding; conditions: apparent binding affinity
Source text: (§4) This stems from the relationship between affinity and the on/off rate constants for binding (KA=kon/koff), where higher affinity binding is promoted by larger kon and/or smaller koff values. By contrast, efficient catalytic turnover requires koff values that are preferably no smaller than the rate constant for the inactivation chemistry (kcat), to ensure the availability of metallodrug catalyst for new target molecules, and will be best promoted by relatively high values for both kon and koff, which will result in weaker KA values.
(§5) Apparent binding affinities and rates of inactivation for HCV protease by several metallopeptide derivatives incorporating a Cu-GGH metal binding domain and C-terminal HCV protease targeting peptides were prepared and their affinity and reactivity were evaluated under in the presence of various redox reagents. Affinities lay within the range of 10^4M^−1 and 5×10^8 M^−1.

HCV protease [10] = biological target: T3, HCV protease; type: biochemical
Source text: as §4, §5

T1 sequence (P12821 30-1261): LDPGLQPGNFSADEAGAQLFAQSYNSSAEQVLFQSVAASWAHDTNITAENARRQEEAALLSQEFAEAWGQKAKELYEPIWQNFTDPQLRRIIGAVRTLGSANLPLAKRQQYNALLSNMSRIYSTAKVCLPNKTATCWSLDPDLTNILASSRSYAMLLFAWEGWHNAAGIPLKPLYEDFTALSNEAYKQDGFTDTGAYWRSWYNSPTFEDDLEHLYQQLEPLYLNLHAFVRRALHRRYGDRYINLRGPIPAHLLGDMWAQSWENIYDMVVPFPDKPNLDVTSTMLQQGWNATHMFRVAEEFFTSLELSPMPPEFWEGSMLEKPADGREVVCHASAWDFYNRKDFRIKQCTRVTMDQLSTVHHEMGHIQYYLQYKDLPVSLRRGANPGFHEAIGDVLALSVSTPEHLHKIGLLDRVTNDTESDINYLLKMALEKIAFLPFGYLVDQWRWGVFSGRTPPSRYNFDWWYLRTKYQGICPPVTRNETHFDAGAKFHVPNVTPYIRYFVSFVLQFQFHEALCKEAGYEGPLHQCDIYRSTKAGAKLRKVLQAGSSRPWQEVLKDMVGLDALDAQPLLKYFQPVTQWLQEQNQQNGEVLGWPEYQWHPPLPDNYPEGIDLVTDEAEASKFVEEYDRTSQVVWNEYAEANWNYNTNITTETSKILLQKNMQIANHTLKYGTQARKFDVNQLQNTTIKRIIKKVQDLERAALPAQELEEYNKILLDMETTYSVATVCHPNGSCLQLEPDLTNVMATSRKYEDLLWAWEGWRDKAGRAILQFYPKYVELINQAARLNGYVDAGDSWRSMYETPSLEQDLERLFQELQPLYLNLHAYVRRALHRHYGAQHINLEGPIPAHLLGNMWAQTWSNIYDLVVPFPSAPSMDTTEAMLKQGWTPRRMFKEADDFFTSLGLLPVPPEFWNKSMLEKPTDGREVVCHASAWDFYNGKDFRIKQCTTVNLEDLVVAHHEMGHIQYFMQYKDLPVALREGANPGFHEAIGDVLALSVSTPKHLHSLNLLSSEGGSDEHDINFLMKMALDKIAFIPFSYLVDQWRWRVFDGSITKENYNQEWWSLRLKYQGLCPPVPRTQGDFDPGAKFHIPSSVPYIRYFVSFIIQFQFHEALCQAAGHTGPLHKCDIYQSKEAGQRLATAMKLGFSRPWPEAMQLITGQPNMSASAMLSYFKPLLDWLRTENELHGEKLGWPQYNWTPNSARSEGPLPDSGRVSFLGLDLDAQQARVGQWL
T3 sequence (P27958 1027-1208, other chains not shown): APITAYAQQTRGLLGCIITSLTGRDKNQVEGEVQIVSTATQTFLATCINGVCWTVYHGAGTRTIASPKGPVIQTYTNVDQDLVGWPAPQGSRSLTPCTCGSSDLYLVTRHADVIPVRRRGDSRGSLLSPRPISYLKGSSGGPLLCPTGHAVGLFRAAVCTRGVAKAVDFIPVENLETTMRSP
T2 sequence (P12821 30-1261): as the sequence (P12821 30-1261) above

O=C([O-])CN(CCN(CC(=O)[O-])CC(=O)[O-])CC(=O)[O-].[Fe+3] [Fe-EDTA]
Second order rate constant for inactivation of sACE-1, M-chelate without lisinopril ([1]; Ascorbate): 10,000 ± 50,000 M^−1min^−1 | Second order rate constant for cleavage of full length sACE-1 (in brackets), M-chelate without lisinopril (full length sACE-1): {<100,000} M^−1min^−1 | klin for DNA linearization, without attached Rev (M-chelate) (pUC19 plasmid DNA): 0.0005 ± 0.0001 min⁻¹ | knick for DNA nicking, without attached Rev (M-chelate) (pUC19 plasmid DNA): 0.044 ± 0.009 min⁻¹

COCCOCCOCCOCCOCCOCCOCCOCCOCCOCCOCCOCCOCCOCCOCCOCCOCCOCCOCCOCCOCCOCCOCCOCCOCCOCCOCCOCCOCCOCCOCCOCCOCCOCCOCCOCCOCCOCCOCCOCCOCCOCCOCCOCCOCCOCCOCCOCCNC(=O)CCN1C(=O)CC(SC[C@H](NC(=O)CNC(=O)CNC(=O)[C@H](CCCCN)NC(=O)[C@H](Cc2ccccc2)NC(=O)[C@@H](CCCNC(=N)N)NC(=O)[C@H](Cc2ccc(O)cc2)NC(=O)CNC(=O)[C@H](Cc2c[nH]cn2)NC(=O)CNC(=O)CN)C(N)=O)C1=O (stereo partly shown) [Cu-GGHGYrFKGGC-PEG48]
CC50: > 50 µM

O=C([O-])CN(CC(=O)[O-])CC(=O)O.[Cu+2] [Cu-NTA]
klin for DNA linearization, without attached Rev (M-chelate) (pUC19 plasmid DNA): 0.0032 ± 0.0004 min⁻¹ | knick for DNA nicking, without attached Rev (M-chelate) (pUC19 plasmid DNA): 0.148 ± 0.007 min⁻¹ | IC50 ([2]; 1 nM sACE-1, 20 min preincubation, 37° C., pH 7.4, read-out: IC50's): 36 µM

Cu-GGHKYKETDLLILFKDDYFAKKNEERK-amide
Vmax [3]: 13.96 RFU/min | KA [4]: 143000 M⁻¹ | Kd [4]: 7 µM | KA [5]: 556000 M⁻¹ | Kd [5]: 1.8 µM | Vmax [6]: 2.0 RFU/min

CC[C@H](C)[C@H](NC(=O)[C@H](CC(C)C)NC(=O)[C@H](CC(C)C)NC(=O)[C@H](CC(=O)O)NC(=O)[C@@H](NC(=O)[C@H](CCC(=O)O)NC(=O)[C@H](CCCCN)NC(=O)[C@H](Cc1ccc(O)cc1)NC(=O)[C@@H](N)CCCCN)[C@@H](C)O)C(=O)N[C@@H](CC(C)C)C(=O)N[C@@H](Cc1ccccc1)C(=O)N[C@@H](CCCCN)C(=O)N[C@@H](CC(=O)O)C(=O)N[C@@H](CC(=O)O)C(=O)N[C@@H](Cc1ccc(O)cc1)C(=O)N[C@@H](Cc1ccccc1)C(=O)N[C@@H](C)C(=O)N[C@@H](CCCCN)C(=O)N[C@@H](CCCCN)C(=O)N[C@@H](CC(N)=O)C(=O)N[C@@H](CCC(=O)O)C(=O)N[C@@H](CCC(=O)O)C(=O)N[C@@H](CCCNC(=N)N)C(=O)N[C@@H](CCCCN)C(N)=O [reference compound] (H-KYKETDLLILFKDDYFAKKNEERK-NH2)
CC50 at 72 h (in vitro): > 100 µM | IC50 [7]: > 100 µM

DDIVPC [Asp-Asp-Ile-Val-Pro-Cys]
Ki (HCV protease [8]): 79 µM

Cu-GGHYRFK-amide (GGHYRFK-NH2; also: Cu complex)
Vmax [3]: 3.96 RFU/min | KA [4]: 145000 M⁻¹ | Kd [4]: 6.9 µM | KA [5]: 145000 M⁻¹ | Kd [5]: 6.9 µM | Vmax [6]: 0.95 RFU/min

CC[C@H](C)[C@H](NC(=O)[C@H](CCCCN)NC(=O)[C@H](C)NC(=O)[C@H](CCC(=O)O)NC(=O)[C@H](CC(C)C)NC(=O)[C@H](C)NC(=O)[C@H](C)N)C(=O)N[C@@H](CS)C(=O)N[C@@H](Cc1c[nH]cn1)C(=O)N[C@@H](CCC(N)=O)C(=O)N[C@H](C(=O)N[C@@H](CCC(=O)O)C(=O)N[C@@H](Cc1ccc(O)cc1)C(=O)N[C@@H](Cc1ccc(O)cc1)C(=O)N[C@@H](Cc1ccccc1)C(=O)NCC(=O)N[C@@H](CC(=O)O)C(=O)N[C@@H](Cc1ccccc1)C(N)=O)[C@@H](C)CC [reference compound] (H-AALEAKICHQIEYYFGDF-NH2)
CC50 at 72 h (in vitro): > 100 µM | IC50 [7]: > 100 µM

COCCOCCOCCOCCOCCOCCOCCOCCOCCOCCOCCOCCOCCOCCOCCOCCOCCOCCOCCOCCOCCOCCOCCOCCNC(=O)CCN1C(=O)CC(SC[C@H](NC(=O)CNC(=O)CNC(=O)[C@H](CCCCN)NC(=O)[C@H](Cc2ccccc2)NC(=O)[C@@H](CCCNC(=N)N)NC(=O)[C@H](Cc2ccc(O)cc2)NC(=O)CNC(=O)[C@H](Cc2c[nH]cn2)NC(=O)CNC(=O)CN)C(N)=O)C1=O (stereo partly shown) [Cu-GGHGYrFKGGC-PEG24] (H-GGHGY[dR]FKGGC(X1)-NH2)
CC50: > 50 µM

N=C(N)NCCC[C@@H](NC(=O)[C@@H](N)Cc1ccc(O)cc1)C(=O)N[C@@H](Cc1ccccc1)C(=O)N[C@@H](CCCCN)C(N)=O [YrFK, reference compound]
CC50 at 72 h (in vitro): > 100 µM | IC50 [7]: > 100 µM

Cu-GGHGDEMEEC
KA (HCV protease [9]): 48000 M⁻¹ | rate constant for inactivation kinact (catalytic efficiency) (HCV protease [10]; in the presence of ascorbate/O2): ~1.6 h⁻¹ | kinact (HCV protease [10]; in the presence of various redox reagents): 0.04 min⁻¹

NCC(=O)NCC(=O)N[C@@H](Cc1c[nH]cn1)C(=O)O [Cu-GGH] (H-Gly-Gly-His-OH)
kinact/KI ([1]; pH 7.4, read-out: Second order rate constant for inactivation of sACE-1, M-chelate without lisinopril, Ascorbate + H2O2): 167 M⁻¹ s⁻¹ | kinact/KI ([1]; pH 7.4, read-out: Second order rate constant for inactivation of sACE-1, M-chelate without lisinopril, Ascorbate): < 16.7 M⁻¹ s⁻¹ | kinact/KI ([1]; pH 7.4, read-out: Second order rate constant for inactivation of sACE-1, M-chelate without lisinopril, H2O2): < 33.3 M⁻¹ s⁻¹ | klin for DNA linearization, without attached Rev (M-chelate) (pUC19 plasmid DNA): 0.0012 ± 0.0002 min⁻¹ | knick for DNA nicking, without attached Rev (M-chelate) (pUC19 plasmid DNA): 0.06 ± 0.01 min⁻¹ | IC50 [2]: 17 µM
